Test results from patent US20050196466A1, “Process for inhibiting cell proliferation” (Pharmacyclics, Inc., priority 2004, published 2005).

Experiments:
A549 cells [1] = assay: MTT assay, plateau phase A549 cells treated with 1-hydroxypyridine-2-thione, MGd and zinc; format: cell-based, human
Source text: (§1) Final mannitol concentration was 0.31% in all wells.

Ramos cells = assay: Cytotoxicity by propidium iodide uptake, flow cytometry; conditions: agent alone
Method: Gated cells with fluorescence at 585 nm from two cultures are shown for each time point. Error bars indicate standard deviation.
In other experiments (FIG. 11), Ramos cells grown in T-25 flasks were treated with a compound of Formula I (where M=Gd) (10 or 50 μM) and zinc (25 or 50 μM) for 1-2 days, Coulter counted, and analyzed by flow cytometry using propidium iodide.

A549 cells [2] = assay: MTT reduction proliferation assay, microtiter plate, A549 cells; format: cell-based, human; conditions: zinc by itself at 100 μM
Source text: as §1

| Compound | effect on A549 cells (A549 cells [1]; ZnHPT by itself at 0.625 μM, formed in situ from zinc acetate and 1-hydroxypyridine-2-thione, after one day (FIG. 12)) | cytotoxic dose of the zinc complex of 1-hydroxypyridine-2-thione (A549 cells [1]; in the presence of a compound of formula 1) | cytotoxicity as assessed by flow cytometry after staining with propidium iodide (Ramos cells) | effect on A549 cells (A549 cells [2]; after one day) | effect on A549 cells (A549 cells [2]; after three days) |
| --- | --- | --- | --- | --- | --- |
| c1cc[n+]2c(c1)[S][Zn]1([O]2)[O][n+]2ccccc2[S]1 [ZnHPT, Zinc complex of 1-hydroxypyridine-2-thione] | no significant effect | lowered | – | – | – |
| CC(=O)[O-].CC(=O)[O-].[Zn+2] [zinc, zinc acetate] | – | – | did not increase cytotoxicity | no significant effect | no significant effect |
